From US8557854B2, “Use of a sulfonamide compound for improving the pharmacokinetics of a drug” (Janssen R&D Ireland, priority 2005, dated 2013)
Like-named read-outs stand apart in the source and are kept apart here. Values belong to the molecule of their own block, whether it stands above or below them.

Legend:
[1] = type: in vivo, NZW rabbits
[2] = system: large panel of viruses resistant to currently known PIs; conditions: disclosed in WO 02/092595; cited from earlier work
CYP450 3A4 = biological target: T1, CYP450 3A4 (Homo sapiens, UniProt P08684); test: In vitro inhibition of CYP3A4: testosterone 6β-hydroxylation in human liver microsomes; type: biochemical
T1 construct: mediated by CYP450 3A4 in human liver microsomes; from tissue; host or cells: human liver microsomes
T1 sequence (P08684 whole entry): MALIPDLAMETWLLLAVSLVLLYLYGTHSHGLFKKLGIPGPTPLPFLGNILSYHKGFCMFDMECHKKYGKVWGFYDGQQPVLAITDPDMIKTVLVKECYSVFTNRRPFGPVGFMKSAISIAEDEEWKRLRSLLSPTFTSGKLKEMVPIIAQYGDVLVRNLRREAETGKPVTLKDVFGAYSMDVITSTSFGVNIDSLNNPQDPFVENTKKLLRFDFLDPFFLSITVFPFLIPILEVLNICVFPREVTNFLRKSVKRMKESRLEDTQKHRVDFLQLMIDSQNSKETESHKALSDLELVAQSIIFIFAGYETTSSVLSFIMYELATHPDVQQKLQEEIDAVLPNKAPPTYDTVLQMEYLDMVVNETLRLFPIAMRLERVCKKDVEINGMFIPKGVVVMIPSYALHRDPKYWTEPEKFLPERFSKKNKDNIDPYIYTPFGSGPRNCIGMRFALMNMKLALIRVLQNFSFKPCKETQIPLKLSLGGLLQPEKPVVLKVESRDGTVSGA

wild-type HIV-1 = conditions: disclosed in WO 02/092595; cited from earlier work
Caco-2 monolayers = test: Bi-directional protease inhibitor transport across Caco-2 monolayers (efflux ratio); type: in vitro ADME; conditions: Caco-2, 100 μM
Source text: (§1) The transport of experimental protease inhibitors was studied in Caco-2 monolayers grown to confluency.

[3] = Phase I trial: effect of compound A on single dose pharmacokinetics of saquinavir in healthy subjects; conditions: human, in vivo, 1000 mg
Method: [drawing 12] was used in a Phase I, open-label, randomized trial in healthy subjects to investigate the steady state pharmacokinetics of compound A, and its effect on the single dose pharmacokinetics of the protease inhibitor saquinavir. Three panels of 8 healthy subjects took a single dose of 1000 mg saquinavir alone, and while taking compound A. The pharmacokinetics of the two intakes of saquinavir was compared. On Day 1 in all panels, all subjects received a single dose of 1000 mg saquinavir. From Day 4 to Day 10, one group of healthy volunteers (Panel 1) received 60 mg compound A b.i.d., one group received 160 mg compound A b.i.d. (Panel 2) and one group took 400 mg compound A b.i.d. (Panel 3). On Day 9, all subjects took a single dose of 1000 mg saquinavir simultaneously with compound A. Full pharmacokinetic profiles of compound A were determined on Day 4, Day 8 and Day 9. Full pharmacokinetic profiles of saquinavir were determined on Day 1 and on Day 9.

[4] = Bi-directional protease inhibitor transport across Caco-2 monolayers (efflux ratio); type: in vitro ADME; conditions: human, Caco-2, control (no inhibitor), 90 min
Source text: as §1

Structure (SMILES): CC(C)CN(C[C@@H](O)[C@H](Cc1ccccc1)NC(=O)OCc1cncs1)S(=O)(=O)c1ccc2nc(N)oc2c1 [Compound A, 5-thiazolylmethyl[(1S,2R)-3[[(2-amino-6-benzoxazolyl)sulfonyl]-(2-methylpropyl)amino]-2-hydroxy-1-(phenylmethyl)propyl]carbamate]
effect on plasma level of darunavir in rabbits [1]: increase
activity against a large panel of viruses resistant to currently known PIs [2]: has also activity
IC50 (CYP450 3A4; testosterone 6β-hydroxylation, read-out: IC50 of CYP3A4 mediated metabolism): 25 to 100 nM
Ki (CYP450 3A4; testosterone metabolism, non-competitive inhibition model, read-out: inhibition constant Ki of CYP3A4 inhibition): 65 nM
in vitro activity against wild-type HIV-1 (wild-type HIV-1): has in vitro activity
effect on transport polarity of protease inhibitors (Pgp efflux) (Caco-2 monolayers): significantly reduce the transport polarity

Structure (SMILES): CC(C)(C)NC(=O)[C@@H]1C[C@@H]2CCCC[C@@H]2CN1C[C@@H](O)[C@H](Cc1ccccc1)NC(=O)[C@H](CC(N)=O)NC(=O)c1ccc2ccccc2n1 [saquinavir]
tmax of saquinavir [3]: 5.0 (2.0-6.0) h
AUC(0-t) ([3]; AUClast of saquinavir): 515 ± 306 ng·h/mL
Cmax ([3]; Cmax of saquinavir): 117 ± 77.7 ng/mL
Tmax ([3]; tmax of saquinavir): 4.5 h

Structure (SMILES): CC(C)CN(C[C@@H](O)[C@H](Cc1ccccc1)NC(=O)O[C@H]1CO[C@H]2OCC[C@H]21)S(=O)(=O)c1ccc2nc(NCCN3CCCC3)sc2c1 [Compound B]
efflux ratio at 90 min, 30 μM ([4]; compound B 30 μM, read-out: efflux ratio (ER) of compound B): 171

Next, values leading:

efflux ratio at 90 min, 30 μM ([4]; compound C 30 μM, read-out: efflux ratio (ER) of compound C): 119
Structure (SMILES): CCN1CCC[C@@H]1CNc1nc2ccc(S(=O)(=O)N(CC(C)C)C[C@@H](O)[C@H](Cc3ccccc3)NC(=O)O[C@H]3CO[C@H]4OCC[C@H]43)cc2s1 [Compound C]

effect on plasma level of darunavir in rabbits [1]: increase
Structure (SMILES): CC(C)CN(C[C@H](O)[C@@H](Cc1ccccc1)NC(=O)OCc1cncs1)S(=O)(=O)c1ccc2nc(N)oc2c1 [Compound E, 5-thiazolylmethyl[(1R,2S)-3[[(2-amino-6-benzoxazolyl)sulfonyl](2-methylpropyl)amino]-2-hydroxy-1-(phenylmethyl)propyl]carbamate]
